Measured values reported in patent US11345710B2, “Imidazo[1,2-b]pyrimido[4,5-d]pyridazin-5(6H)-ones and the use thereof” (IMPACT THERAPEUTICS (SHANGHAI), INC, priority 2017, dated 2022).
Like-named read-outs stand apart in the source and are kept apart here.

Key:
[1] = tested on: NCI-H1299 cells; assay: MTT based cell viability assay on NCI-H1299 cells; settings: Homo sapiens, read-out: IC50, growth inhibition on NCI-H1299 cells
Experimental: Determination of the Cell Growth Inhibiting Activity of 6-(2,6-dichlorophenyl)-2-((4-(4-methylpiperazin-1-yl)phenyl)amino)imidazo[1,2-b]pyrimido[4,5-d]pyridazin-5(6H)-one and Analogs on NCI-H1299 Cells Using a MTT Based Cell Viability Assay
The thawed NCI-H1299 cells were cultured and passaged to the third generation, and the growth state was good and the confluence was about 90%, which began to be used in the experiment. The NCI-H1299 cells were digested with trypsin, centrifuged at 800 rpm for 5 min, the supernatant was discarded, resuspended with fresh culture medium, and counted. 1000 Cells are seeded to each well of a 96-well plate. The cells are incubated at 37° C. in a 5% CO2 cell culture incubator overnight. The tested sample (including the tested compound and the reference compound AZD1775) was diluted continuously to 8 concentrations (the last concentration was negative control of DMSO) with a 1:3 and 1:10 dilution in DMSO respectively: 10 μM, 3.3 μM, 1 μM, 0.33 μM, 0.1 μM, 0.033 μM, 0.01 μM, 0 μM (the final concentration of DMSO was 1%). 5 μL of each concentration was added to 120 μL of culture medium (25 times diluted), and the mixture was shaken well. The overnight cells were taken and the culture medium was removed, 195 μL of fresh culture medium was added to each well, and 5 μL of diluted culture medium containing the corresponding concentration of the tested sample was added respectively, and the culture plate was then placed in the 5% CO2 cell culture incubator at 37° C. for 3 d. After removing the original solution and adding 100 μL of fresh serum-free DMEM culture medium containing MTT (0.5 mg/mL) per well, the culture was continued. The original solution was removed after 4 hrs and 100 μl DMSO was added to each well. The 96-well cell culture plates were shaken away from light for 10 min and readed in a multifunctional reader at 552/630/690 nm to give absorption values (OD values). The data were analyzed using a graphic software (Graph Pad Prism 5.0) and the inhibitory activity of the compound on cell proliferation was plotted in terms of cell survival and compound concentration. The IC50 values were fitted by the S-shaped dose-response curve equation as follows: Y=100/(1+10^(Log C−Log IC50)), where C was the concentration of testing compounds.

[2] = tested on: LoVo cells; assay: MTT based cell viability assay on LoVo cells; settings: Homo sapiens, 72 h, read-out: IC50, growth inhibition on LoVo cells
Experimental: Determination of the Cell Growth Inhibiting Activity of 6-(2,6-dichlorophenyl)-2-((4-(4-methylpiperazin-1-yl)phenyl)amino)imidazo[1,2-b]pyrimido[4,5-d]pyridazin-5(6H)-one and Analogs Thereof on LoVo Cells Using a MTT Based Cell Viability Assay
The thawed LoVo cells were cultured and passaged to the third generation, and the growth state was good and the confluence was about 90%, which began to be used in the experiment. The LoVo cells were digested with trypsin, centrifuged at 800 rpm for 5 min, the supernatant was discarded, resuspended with fresh culture medium, and counted. 6000 Cells are seeded to each well of a 96-well cell culture plate. The cells were incubated at 37° C. in a 5% CO2 cell culture incubator overnight. The tested sample (including the tested compound and the reference compound AZD1775) was diluted continuously to 8 concentrations (the last concentration was negative control of DMSO) with a 1:3 and 1:10 dilution in DMSO respectively: 10 μM, 3.3 μM, 1 μM, 0.33 μM, 0.1 μM, 0.033 μM, 0.01 μM, 0 μM (the final concentration of DMSO was 1%). 5 μL of each concentration was added to 120 μL of culture medium (25 times diluted), and the mixture was shaken well. The overnight cells were taken and the culture medium was removed, 195 μL of fresh culture medium was added to each well, and 5 μL of diluted culture medium containing the corresponding concentration of the tested sample was added respectively, and the culture plate was then placed in the 5% CO2 cell culture incubator at 37° C. for 3 d. After removing the original solution and adding 100 μL of fresh serum-free DMEM culture medium containing MTT (0.5 mg/mL) per well, the culture was continued. The original solution was removed after 4 hrs and 100 μl DMSO was added to each well. The 96-well cell culture plates were shaken away from light for 10 min and readed in a multifunctional reader at 552/630/690 nm to give absorption values (OD values). The data were analyzed using a graphic software (Graph Pad Prism 5.0) and the inhibitory activity of the compound on cell proliferation was plotted in terms of cell survival and compound concentration. The IC50 values were fitted by the S-shaped dose-response curve equation as follows: Y=100/(1+10^(Log C−Log IC50)), where C was the concentration of testing compounds.

[3] = target: Wee1 kinase (h) (Homo sapiens, UniProt P30291); assay: Wee1 kinase (h) detection method, [γ-33P]-ATP filter assay; type: biochemical; settings: 10 μM ATP, 40 minutes at room temperature
Experimental: Wee1 kinase (h) was incubated with 20 mM Tris/HCl pH 8.5, 0.2 mM EDTA, 500 μM […], 10 mM MgAcetate and 10 μM [γ-^33P]-ATP. Then the stock solution of all compounds under test with 50× concentration in 100% DMSO was added to make the final concentration of 1/0.1/0.01 μM, and then mixed the mixture well. The reaction was initiated by the addition of the Mg/ATP mix. After incubation for 40 minutes at room temperature, the reaction was stopped by the addition of phosphoric acid to a concentration of 0.5%. 10 μL of the reaction liquor was then spotted onto a P30 filtermat and washed four times in 0.425% phosphoric acid and once in methanol prior to drying and scintillation counting. Each compound sample was duplicated in duplicate. The negative control was lack of all the components of Wee1 enzyme, and the positive was addition of 30% phosphoric acid to terminate the reaction. The Wee1 inhibitor AZD1775 was detected at 10/0.01 μM at the same experiment condition.

[4] = 72 h, NCI-H1299 cells, 3 d, MTT

Chain of Wee1 kinase (h) (P30291 whole entry): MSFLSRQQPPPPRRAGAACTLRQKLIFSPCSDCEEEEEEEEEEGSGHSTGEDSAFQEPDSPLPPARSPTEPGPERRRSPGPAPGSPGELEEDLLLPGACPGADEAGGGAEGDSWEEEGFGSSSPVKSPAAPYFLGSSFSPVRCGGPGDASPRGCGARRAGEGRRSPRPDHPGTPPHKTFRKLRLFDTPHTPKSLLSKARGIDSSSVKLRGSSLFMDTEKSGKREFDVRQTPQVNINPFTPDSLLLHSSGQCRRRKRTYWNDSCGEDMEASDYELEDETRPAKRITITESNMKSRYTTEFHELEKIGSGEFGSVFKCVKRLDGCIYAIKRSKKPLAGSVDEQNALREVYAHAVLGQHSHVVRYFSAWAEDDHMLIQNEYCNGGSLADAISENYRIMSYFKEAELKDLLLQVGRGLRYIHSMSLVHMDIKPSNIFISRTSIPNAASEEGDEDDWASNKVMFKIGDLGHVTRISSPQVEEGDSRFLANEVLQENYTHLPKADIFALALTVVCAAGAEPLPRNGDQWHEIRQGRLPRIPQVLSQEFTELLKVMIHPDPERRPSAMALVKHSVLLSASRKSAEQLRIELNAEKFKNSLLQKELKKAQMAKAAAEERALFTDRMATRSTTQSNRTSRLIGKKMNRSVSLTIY

| Inh. (%) of Wee1 kinase ([3]; C 1 μm) [%] | IC50 [1, 4] [nM] | IC50 ([2]; LoVo cells, 3 d, MTT) [nM] | SMILES | IC50 ([1]; NCI-H1299, 72 h) [nM] | IC50 ([2]; LoVo) [nM] | Inh. (%) of Wee1 kinase ([3]; C 0.01 μm) [%] | Inh. (%) of Wee1 kinase ([3]; C 0.1 μm) [%] |
| --- | --- | --- | --- | --- | --- | --- | --- |
| – | – | – | Cc1cc(Nc2ncc3c(=O)n(-c4c(Cl)cccc4Cl)n4ccnc4c3n2)ccc1N1C[C@@H](C)N(C)[C@@H](C)C1 [Example 33, 6-(2,6-dichlorophenyl)-2-((3-methyl-4-((3S,5R)-3,4,5-trimethylpiperazin-1-yl)phenyl)amino)imidazo[1,2-b]pyrimido[4,5-d]pyridazin-5(6H)-one] | 237 | 394 | – | – |
| 93 | 555 | 266 | Cc1cc(Nc2ncc3c(=O)n(-c4c(F)cccc4Cl)n4ccnc4c3n2)cc(C)c1N1CCN(C)CC1 [Example 11, 6-(2-chloro-6-fluorophenyl)-2-((3,5-dimethyl-4-(4-methylpiperazin-1-yl)phenyl)amino)imidazo[1,2-b]pyrimido[4,5-d]pyridazin-5(6H)-one] | – | – | – | – |
| 87 | 904 | 832 | Cc1cc(Nc2ncc3c(=O)n(-c4c(C)cccc4F)n4ccnc4c3n2)cc(C)c1N1CCN(C)CC1 [Example 15, 6-(2-fluoro-6-methylphenyl)-2-((3,5-dimethyl-4-(4-methylpiperazin-1-yl)phenyl)amino) imidazo[1,2-b]pyrimido[4,5-d]pyridazin-5(6H)-one] | – | – | – | – |
| 93 | 652 | 406 | Cc1cc(Nc2ncc3c(=O)n(-c4c(F)cccc4F)n4ccnc4c3n2)ccc1N1CCN(C)CC1 [Example 2, 6-(2,6-difluorophenyl)-2-((3-methyl-4-(4-methylpiperazin-1-yl)phenyl)amino)imidazo[1,2-b]pyrimido[4,5-d]pyridazin-5(6H)-one] | – | – | – | – |
| 94 | 501 | 324 | Cc1cc(Nc2ncc3c(=O)n(-c4c(Cl)cccc4Br)n4ccnc4c3n2)cc(F)c1N1CCC(N(C)C)CC1 [Example 50, 6-(2-bromo-6-chlorophenyl)-2-((3-fluoro-5-methyl-4-(4-(dimethylamino)piperidin-1-yl)phenyl)amino)imidazo[1,2-b]pyrimido[4,5-d]pyridazin-5(6H)-one] | – | – | – | – |
| – | – | – | C[C@@H]1CN(c2ccc(Nc3ncc4c(=O)n(-c5c(Cl)cccc5Cl)n5ccnc5c4n3)cc2F)C[C@H](C)N1C [Example 31, 6-(2,6-dichlorophenyl)-2-((3-fluoro-4-((3S,5R)-3,4,5-trimethylpiperazin-1-yl)phenyl)amino)imidazo[1,2-b]pyrimido[4,5-d]pyridazin-5(6H)-one] | 672 | 809 | – | – |
| 78 | 809 | 756 | Cc1cc(Nc2ncc3c(=O)n(-c4c(C)cccc4F)n4ccnc4c3n2)cc(Cl)c1N1CCN(C)CC1 [Example 52, 6-(2-fluoro-6-methylphenyl)-2-((3-chloro-5-methyl-4-(4-methylpiperazin-1-yl)phenyl)amino)imidazo[1,2-b]pyrimido[4,5-d]pyridazin-5(6H)-one] | – | – | – | – |
| – | 220 | 285 | Cc1cn2c(n1)c1nc(Nc3cc(C)c(N4CCC(N(C)C)CC4)c(F)c3)ncc1c(=O)n2-c1c(Cl)cccc1Cl [Example 59, 6-(2,6-dichlorophenyl)-2-((3-fluoro-5-methyl-4-(4-(dimethylamino)piperidin-1-yl)phenyl)amino)-9-methylimidazo[1,2-b]pyrimido[4,5-d]pyridazin-5(6H)-one] | – | – | 7 | – |
| – | 328 | 359 | Cc1cc(Nc2ncc3c(=O)n(-c4c(F)cccc4Cl)n4ccnc4c3n2)ccc1N1C[C@@H](C)N(C)[C@@H](C)C1 [Example 24, 6-(2-chloro-6-fluorophenyl)-2-((3-methyl-4-((3S,5R)-3,4,5-trimethylpiperazin-1-yl)phenyl)amino)imidazo[1,2-b]pyrimido[4,5-d]pyridazin-5(6H)-one] | – | – | – | – |
| – | – | – | Cc1cc(Nc2ncc3c(=O)n(-c4c(Cl)cccc4Cl)n4ccnc4c3n2)ccc1C1CCN(C)CC1 [Example 41, 6-(2,6-dichlorophenyl)-2-((3-methyl-4-(1-methylpiperidin-4-yl)phenyl)amino)imidazo[1,2-b]pyrimido[4,5-d]pyridazin-5(6H)-one] | 184 | 212 | – | – |
| – | 161 | 325 | CCc1cn2c(n1)c1nc(Nc3ccc(N4CCN(C)CC4)c(C)c3)ncc1c(=O)n2-c1c(Cl)cccc1Cl [Example 60, 6-(2,6-dichlorophenyl)-2-((3-methyl-4-(4-methylpiperazin-1-yl)phenyl)amino)-9-ethylimidazo[1,2-b]pyrimido[4,5-d]pyridazin-5(6H)-one] | – | – | – | – |
| – | – | – | C[C@@H]1CN(c2ccc(Nc3ncc4c(=O)n(-c5c(Cl)cccc5Cl)n5ccnc5c4n3)cc2)C[C@H](C)N1C [Example 30, 6-(2,6-dichlorophenyl)-2-((4-((3S,5R)-3,4,5-trimethylpiperazin-1-yl)phenyl)amino)imidazo[1,2-b]pyrimido[4,5-d]pyridazin-5(6H)-one] | 508 | 779 | – | – |
| – | – | – | C[C@@H]1CN(c2ccc(Nc3ncc4c(=O)n(-c5c(Cl)cccc5Cl)n5ccnc5c4n3)cc2Cl)C[C@H](C)N1C [Example 32, 6-(2,6-dichlorophenyl)-2-((3-chloro-4-((3S,5R)-3,4,5-trimethylpiperazin-1-yl)phenyl)amino)imidazo[1,2-b]pyrimido[4,5-d]pyridazin-5(6H)-one] | 515 | 679 | – | – |

| SMILES | Inh. (%) of Wee1 kinase ([3]; C 1 μm) [%] | IC50 [1, 4] [nM] | IC50 ([2]; LoVo cells, 3 d, MTT) [nM] | IC50 ([1]; NCI-H1299, 72 h) [nM] | IC50 ([2]; LoVo) [nM] | Inh. (%) of Wee1 kinase ([3]; C 0.01 μm) [%] | Inh. (%) of Wee1 kinase ([3]; C 0.1 μm) [%] |
| --- | --- | --- | --- | --- | --- | --- | --- |
| Cc1cc(Nc2ncc3c(=O)n(-c4c(Cl)cccc4Cl)n4ccnc4c3n2)cc(Cl)c1N1CCN(C)CC1 [Example 29, 6-(2,6-dichlorophenyl)-2-((3-chloro-5-methyl-4-(4-methylpiperazin-1-yl)phenyl)amino)imidazo[1,2-b]pyrimido[4,5-d]pyridazin-5(6H)-one] | 93 | – | – | 400 | 272 | 21 | 65 |
